Earlier results, collected in US10927398B2, “Compositions for CYP450 phenotyping using saliva samples” (Concordia University, Inc., priority 2015, dated 2021).
Like-named read-outs stand apart in the source and are kept apart here.

How the values were obtained:
[1] = cited from earlier work
[2] = cited from earlier work; remark: listed apart in the source
plasma protein = conditions: cited from earlier work
[3] = Table of Exemplary Drugs, CYP2D6
[4] = Table of Exemplary Drugs, CYP3A4
[5] = Table of Exemplary Drugs, CYP2C9
[6] = Table of Exemplary Drugs, CYP2C19
[7] = Table of Exemplary Drugs, CYP1A2

SMILES: COc1cc(C(C)=O)ccc1OCCCN1CCC(c2noc3cc(F)ccc23)CC1 [Iloperidone]
- HALF-LIFE [1, 3]: 18 to 33 h
- ORAL BIOAVAILABILITY [2, 3]: 96%
- PLASMA PROTEIN BINDING (plasma protein; [3]): 95%

SMILES: CCc1nn(CCCN2CCN(c3cccc(Cl)c3)CC2)c(=O)n1CCOc1ccccc1 [Nefazodone]
- HALF-LIFE [1, 4]: 2 to 4 h
- ORAL BIOAVAILABILITY [2, 4]: 20%
- PLASMA PROTEIN BINDING (plasma protein; [4]): >99%

SMILES: O=C(C1CCCCC1)N1CC(=O)N2CCc3ccccc3C2C1 (stereo not drawn) [Praziquantel (Biltricide), Praziquantel]
- HALF-LIFE [1, 4]: 0.8 to 3 h
- ORAL BIOAVAILABILITY [2, 4]: 80%
- PLASMA PROTEIN BINDING (plasma protein; [4]): 80%

SMILES: Clc1ccc2c(c1)C(c1ccccc1)=NCc1nncn1-2 [Estazolam (ProSom), Estazolam]
- HALF-LIFE [1, 4]: 10 to 24 h
- ORAL BIOAVAILABILITY [2, 4]: 93%
- PLASMA PROTEIN BINDING (plasma protein; [4]): 93%

SMILES: COC(=O)C1=C(C)NC(C)=C(C(=O)OCC(C)C)C1c1ccccc1[N+](=O)[O-] (stereo not drawn) [Nisoldipine (Sular), Nisoldipine]
- HALF-LIFE [1, 4]: 13.7 h
- ORAL BIOAVAILABILITY [2, 4]: 5%
- PLASMA PROTEIN BINDING (plasma protein; [4]): 99%

SMILES: CC[C@@H](c1cccc(O)c1)[C@@H](C)CN(C)C [Tapentadol]
- HALF-LIFE [1, 5]: 4 to 5 h
- HALF-LIFE [1, 6]: 4 to 5 h
- HALF-LIFE [1, 3]: 4 to 5 h
- ORAL BIOAVAILABILITY [2, 5]: 32%
- ORAL BIOAVAILABILITY [2, 6]: 32%
- ORAL BIOAVAILABILITY [2, 3]: 32%
- PLASMA PROTEIN BINDING (plasma protein; [5]): 20%
- PLASMA PROTEIN BINDING (plasma protein; [6]): 20%
- PLASMA PROTEIN BINDING (plasma protein; [3]): 20%

SMILES: COc1ccc2c3c1O[C@H]1C(=O)CC[C@@]4(O)[C@@H](C2)N(C)CC[C@]314 [Oxycodone]
- HALF-LIFE [1, 3]: 5.6 h
- HALF-LIFE [1, 4]: 5.6 h
- ORAL BIOAVAILABILITY [2, 3]: 60-87%
- ORAL BIOAVAILABILITY [2, 4]: 60-87%
- PLASMA PROTEIN BINDING (plasma protein; [3]): 45%
- PLASMA PROTEIN BINDING (plasma protein; [4]): 45%

SMILES: OCCN1CCN(CC/C=C2/c3ccccc3Sc3ccc(Cl)cc32)CC1 [Zuclopenthixol]
- HALF-LIFE [1, 3]: 20 h
- ORAL BIOAVAILABILITY [2, 3]: 49%
- PLASMA PROTEIN BINDING (plasma protein; [3]): 98%

SMILES: CCCCCc1cc(O)c2c(c1)OC(C)(C)[C@@H]1CCC(C)=C[C@@H]21 [THC]
- HALF-LIFE [1, 5]: 1.6 to 59 h
- ORAL BIOAVAILABILITY [2, 5]: 10-35%
- PLASMA PROTEIN BINDING (plasma protein; [5]): 97-99% ^

SMILES: CCS(=O)(=O)CCn1c([N+](=O)[O-])cnc1C [Tinidazole (Tindamax), Tinidazole]
- HALF-LIFE [1, 4]: 11.1 to 14.7 h
- ORAL BIOAVAILABILITY [2, 4]: 100%
- PLASMA PROTEIN BINDING (plasma protein; [4]): 12%

SMILES: O=C1CCc2cc(OCCCCc3nnnn3C3CCCCC3)ccc2N1 [Cilostazol (Pletal), Cilostazol]
- HALF-LIFE [1, 4]: 11 to 13 h
- ORAL BIOAVAILABILITY [2, 4]: 87-100%
- PLASMA PROTEIN BINDING (plasma protein; [4]): 95-98% ^

SMILES: COc1cc(N)c(Cl)cc1C(=O)NC1CCN(CCCOc2ccc(F)cc2)CC1OC (stereo not drawn) [Cisapride (Propulsid), Cisapride]
- HALF-LIFE [1, 4]: 6 to 12 h
- ORAL BIOAVAILABILITY [2, 4]: 35-65%
- PLASMA PROTEIN BINDING (plasma protein; [4]): 98%

SMILES: C[C@@H](O[C@H]1OCCN(Cc2n[nH]c(=O)[nH]2)[C@H]1c1ccc(F)cc1)c1cc(C(F)(F)F)cc(C(F)(F)F)c1 [Aprepitant (Emend), Aprepitant]
- HALF-LIFE [1, 4]: 9 to 13 h
- ORAL BIOAVAILABILITY [2, 4]: 60-65%
- PLASMA PROTEIN BINDING (plasma protein; [4]): 95%

SMILES: CCN[C@@H](C)Cc1cccc(C(F)(F)F)c1 [Dexfenfluramine]
- HALF-LIFE ([1]; in vivo): 17 to 20 h
- ORAL BIOAVAILABILITY ([2]; in vivo, po): 68%
- PLASMA PROTEIN BINDING (plasma protein; [3]): 36%

SMILES: COc1ccc([C@@H]2Sc3ccccc3N(CCN(C)C)C(=O)[C@@H]2OC(C)=O)cc1 [Diltiazem (Cardizem), Diltiazem]
- HALF-LIFE [1, 4]: 3 to 6 h
- ORAL BIOAVAILABILITY [2, 4]: >40%
- PLASMA PROTEIN BINDING (plasma protein; [4]): 70-80% ^

SMILES: CNC1(c2ccccc2Cl)CCCCC1=O (stereo not drawn) [Ketamine]
- HALF-LIFE ([1]; in vivo): 2 to 3 h
- ORAL BIOAVAILABILITY ([2]; in vivo): IM: 90-93%, PO: 16%
- PLASMA PROTEIN BINDING (plasma protein; plasma): 47%

SMILES: CN1CCN(C(=O)OC2c3nccnc3C(=O)N2c2ccc(Cl)cn2)CC1 (stereo not drawn) [Zopiclone (Imovane), Zopiclone]
- HALF-LIFE [1, 4]: 3.5 to 6.5 h
- ORAL BIOAVAILABILITY [2, 4]: 80%
- PLASMA PROTEIN BINDING (plasma protein; [4]): 45%

SMILES: Cc1ccc(S(=O)(=O)NC(=O)NN2CC3CCCC3C2)cc1 (stereo not drawn) [Gliclazide]
- HALF-LIFE [1, 6]: 8 to 12 h
- ORAL BIOAVAILABILITY [2, 6]: 80%
- PLASMA PROTEIN BINDING (plasma protein; [6]): 85-99% ^

SMILES: C[C@]12CC[C@H]3[C@@H](CCC4=CC(=O)CC[C@@]43C)[C@@H]1CC[C@@H]2O [Testosterone]
- HALF-LIFE (hrs) ([1]; in vivo): varies
- ORAL BIOAVAILABILITY ([2]; in vivo, po): Varies
- PLASMA PROTEIN BINDING (plasma protein; plasma): 98%

SMILES: COC(=O)N[C@H](C(=O)N[C@@H](Cc1ccccc1)[C@@H](O)CN(Cc1ccc(-c2ccccn2)cc1)NC(=O)[C@@H](NC(=O)OC)C(C)(C)C)C(C)(C)C [Atazanavir (Reyataz), Atazanavir]
- HALF-LIFE [1, 4]: 7 h
- ORAL BIOAVAILABILITY [2, 4]: 60-68%
- PLASMA PROTEIN BINDING (plasma protein; [4]): 86%

SMILES: CN(C)CCC=C1c2ccccc2C=Cc2ccccc21 [Cyclobenzaprine]
- HALF-LIFE [1, 7]: 8 to 37 h
- ORAL BIOAVAILABILITY [2, 7]: 33-55%
- PLASMA PROTEIN BINDING (plasma protein; [7]): 93%
